Laboratory results: patent US9012411B2, “Formulations from derivatives of curcumin, paclitaxel, and aspirin” (Organomed Corporation, priority 2009, dated 2015)
Entries after “also recorded” stand apart in the source; their conditions may differ. Where a name gives a salt, the structure may show the parent alone. Marks after values point to notes of the source that are not given here.

Assays:
[1] = tested on: normal (non-cancer) cell line WI-38; assay: Cellular inhibition, Alamar Blue; type: cell-based
Protocol: (§1) Assays were performed with 3 cancer cell lines: breast (SKBR3), pancreatic (Panc1), prostate (PC-3) and 1 normal (nor-cancer) cell line (WI-38). Compounds were delivered to the cells after dissolving in DMSO. Five dilutions per compound were tested on a total of 4 cell lines in 96 well plates. Cellular inhibition was measured using Alamar Blue. After addition of compound a 24 hour and 48 hour time point using fluorescent plate reader was taken. Data from plate reader was analyzed in the following way: % inhibition bar graphs, % inhibition line graphs and IC50 growth inhibition values. In Tables 7-14, IC50 units are Molar (M).

[2] = tested on: breast (SKBR3) cancer cell line; assay: Cellular inhibition, Alamar Blue; type: cell-based; conditions: for inhibition of proliferation: skbr3, 48 hours
Protocol: as §1

[3] = tested on: pancreatic (Panc1) cancer cell line; assay: Cellular inhibition, Alamar Blue; type: cell-based; conditions: for inhibition of proliferation: Panc-1, 48 hours
Protocol: as §1

[4] = tested on: prostate (PC-3) cancer cell line; assay: Cellular inhibition, Alamar Blue; type: cell-based; conditions: for inhibition of proliferation: PC-3, 48 hours
Protocol: as §1

[5] = tested on: carrageenan induced rat paw edema; assay: Carrageenan induced rat paw edema; type: in vivo, albino rats; conditions: for Paw circumference: Example 8 (in vivo), 100 mg/kg oral with food; for Percent inhibition of paw edema (Std. Error): Example 9, 100 mg/kg oral with food
Protocol: Animals were kept under 13 hour day night cycle. Animals were given standard diet and water was provided ad, libitum. All animals were acclimatized for at least one week before the experimental session. Animals were divided in to five groups. Each group consisted of 8 animals.
Pedal inflammation in albino rats of either sex was produced according to the method of Winter et al., (Proc Soc Exp Biol Med 1963; 111: 544-7). An injection was made with 0.1 ml of 1% carrageenan (SIGMA) suspension into the right hind foot of each rat in the plantar region. […] Control group 5 was given 0.5 ml saline and groups 1 and 2 received aspirin. Increase in linear paw circumference was measured by tying a piece of cotton thread round the rat's paw, and noting the point of intersection of two ends on a meter scale. This was taken as an index of increase in paw volume, which is a measure of oedema (Bamgbose S O A, Noamesi B K. Planta Med 1981; 42: 392-6). Measurements were taken immediately before and at 1, 2 and 3 hours after carrageenan injection. The inhibitory activity was calculated according to the following formula (Awe S O, Olajide O A, Adeboye J O, Makinde J M. Indian J Pharmacol 1998; 30: 38-42):
[formula] Ct-Linear paw circumference 3 hours after carrageenan injection and Co-Linear paw circumference before carrageenan injection.
Albino rats obtained from central animal house of institute were used in the study. The animals were kept under 12 hour day night cycle. Animals were given standard diet and water was provided ad libitum. All animals were acclimatized for at least one week before the experimental session. Animals were divided into twelve groups in the carrageenan induced paw edema and tail flick method. Each group consisted of 4 animal each.
Animals were divided into eight groups in the carrageenan induced paw edema and tail flick method. Each group consisted of 6 animal each. The groups received various chemicals as given in Table 16 by oral administration with food. The following methods were used to evaluate the activity of the compositions:
Pedal inflammation in albino rats of either sex was produced according to the method of Winter et al. (Proc. Soc. Exp. Biol. Med., 1963, 111: 544-547). An injection was made with 0.1 ml of 1% carrageenan (SIGMA) suspension into the right hind foot of each rat in the plantar region. The various chemicals were given 30 minutes before carrageenan injection. Increase in linear paw circumference was measured by tying a piece of cotton thread round the rat's paw, and noting the point of intersection of two ends on a meter scale. This was taken as an index of increase in paw volume, which is a measure of edema (Bamgbose, S. O. A. & Noamesi, B. K., Planta. Med., 1981, 42: 392-396). Measurements were taken immediately before and at 1, 2 and 3 hours after carrageenan injection. The inhibitory activity was calculated according to the following formula (Awe S O, Olajide O A, Adeboye J O, Makinde J M. Indian J. Pharmacol., 1998; 30: 38-42):
Animals were divided into six groups in the carrageenan induced paw edema and tail flick method. Each group consisted of 8 animals each. Carrageenan-induced rat paw edema and Tail flick test were performed as discussed above in Example 8. Data were analyzed using analysis of variance (ANOVA) with Posthoc Bonferroni multi-comparisons. P<0.05 was considered as statistically significant.

[6] = tested on: tail flick latency in rats; assay: Tail flick test (analgesic activity); type: in vivo, albino rats
Protocol: Rats were screened for tail flip reaction with a cut-off time of 5 seconds. For each animal, the tail flick latency was obtained thrice before drug administration and mean was used as pre-drug latency. The tail flick latencies were measured at 0, 0.5, 1, 1.5, 2 and 3 h after administration chemicals.
Albino rats obtained from central animal house of institute were used in the study. The animals were kept under 12 hour day night cycle. Animals were given standard diet and water was provided ad libitum. All animals were acclimatized for at least one week before the experimental session. […] Each group consisted of 4 animal each.
Rats were screened for tail flip reaction with a cut-off time of 5 seconds. For each animal, the tail flick latency was obtained thrice before drug administration and mean was used as pre-drug latency. The tail flick latencies were measured at 0, 0.5, 1, 1.5, 2 and 3 h after administration of chemicals.
Each group consisted of 8 animals each. […] Data were analyzed using analysis of variance (ANOVA) with Posthoc Bonferroni multi-comparisons. P<0.05 was considered as statistically significant.

PC3 cells = assay: GI50 (50% inhibition of cell growth), MTT assay, 72 hours; type: cell-based; conditions: Homo sapiens, PC-3, 72 h, PC3, 72 hours, 1 ng/ml to 10 ug/ml (Example 8)
Protocol: (§2) The cells were plated onto a 96 well plate and treated with different concentrations of the compounds from 1 ng/ml to 10 ug/ml for 72 hours followed by MTT assay.
(§3) The cells were plated onto a 96 well plate and treated with different concentrations of the compounds from 0.04 ng/ml to 400 ng/ml for 72 hours followed by MTT assay.

PANC-1 cells = assay: as above; type: cell-based; conditions: Homo sapiens, PANC-1, 72 h, 1 ng/ml to 10 ug/ml (Example 8)
Protocol: as §2, §3

[7] = In vitro enzyme hydrolysis in human serum (HPLC); type: in vitro ADME; conditions: 25% human serum; for Test compound Rate: rate of decomposition of test compound; for Salicyclic acid Rate: rate of release of salicylic acid; for Test compound Concentration: remaining test compound; for Salicyclic acid Concentration: salicylic acid released from test compound, 0.2 mg/mL
Protocol: A 25% solution of human serum in 0.01M phosphate buffer was taken and the test compound (glucose aspirin or aspirin) were added to get a concentration of 0.2 mg/mL. The hydrolysis for the rate of release of salicylic acid and the rate of decomposition of the test compound were measured by HPLC.

[8] = tested on: cancer cell lines SKBR3, Panc1, PC-3; assay: Cellular inhibition, Alamar Blue, cancer cell lines taken together; type: cell-based; conditions: 24 hours
Protocol: as §1

[9] = Example 5, 100 and 200 mg/kg i.p., rats
[10] = Example 9, 100 mg/kg oral with food, 30 min
[11] = Example 9, 100 mg/kg oral with food, 60 min
[12] = Example 9, 100 mg/kg oral with food, 90 min
[13] = Example 9, 100 mg/kg oral with food, 120 min
[14] = Example 9, 100 mg/kg oral with food, 180 min
[15] = Example 9, 100 mg/kg oral with food, column headed min

Molecule: COc1cc(/C=C/C(=O)CC(=O)/C=C/c2ccc(O)c(OC)c2)ccc1O [Curcumin]
- inhibition of normal lung cells (WI-38) ([1]; 24 hours, 100, 150 and 300 uM): over 20%
- IC50 ([1]; Homo sapiens, WI-38, WI38, 24 hours): 1000 µM
- IC50 ([1]; Homo sapiens, WI-38, WI38, 48 hours): 89.9 µM
- IC50 ([2]; Homo sapiens, SK-BR-3, SKBR3, 24 hours): 84.1 µM
- IC50 ([2]; Homo sapiens, SK-BR-3, SKBR3, 48 hours): 99.4 µM
- IC50 ([3]; Homo sapiens, PANC-1, PANC1, 24 hours): 41.5 µM
- IC50 ([3]; Homo sapiens, PANC-1, PANC1, 48 hours): 38.2 µM
- IC50 ([4]; PC3, 24 hours): 29.5 µM
- IC50 ([4]; PC3, 48 hours): 24.2 µM
- Paw circumference ([5]; 0 h): 3.2 mm
- Paw circumference ([5]; 1 h): 3.68 mm
- Paw circumference ([5]; 2 h): 3.45 mm
- Paw circumference ([5]; 3 h): 3.53 mm
- Tail flick latency time ([6]; Example 8 (in vivo), 100 mg/kg oral with food, 0 min): 2.67 s
- Tail flick latency time ([6]; Example 8 (in vivo), 100 mg/kg oral with food, 30 min): 2.58 s
- Tail flick latency time ([6]; Example 8 (in vivo), 100 mg/kg oral with food, 60 min): 2.8* seconds
- Tail flick latency time ([6]; Example 8 (in vivo), 100 mg/kg oral with food, 90 min): 3.18* seconds
- Tail flick latency time ([6]; Example 8 (in vivo), 100 mg/kg oral with food, 120 min): 3.03 s
- Tail flick latency time ([6]; Example 8 (in vivo), 100 mg/kg oral with food, 180 min): 2.68 s
- Tail flick / analgesic activity (in words) ([6]; Example 8 (in vivo), oral, 100 mg/kg total (combinations 50 mg/kg each)): stronger activity at 60 and 90 minutes

Molecule: Nc1ccn([C@@H]2O[C@H](CO)[C@@H](O)C2(F)F)c(=O)n1 [NJ-92-1, Gemcitabine.HCl]
- GI50 (PC3 cells): 3.85 µg/mL
- GI50 (PANC-1 cells): 7.18 µg/mL

Molecule: CC(=O)Oc1ccccc1C(=O)O[C@@H]([C@H](O)[C@H](O)CO)[C@@H](O)C=O [PMN II-168, 3-(2′-Acetyloxybenzoyl)-D-glucose]
- IC50 ([1]; WI38, 24 hours): 376 µM
- IC50 ([1]; WI38, 48 hours): 310 µM
- IC50 ([2]; SKBR3, 24 hours): 201 µM
- IC50 ([2]; SKBR3, 48 hours): 87.8 µM
- inhibition of proliferation ([2]; 150 uM): ~60%
- inhibition of proliferation ([2]; 300 uM): approximately 90%
- IC50 ([3]; PANC1, 24 hours): 399 µM
- IC50 ([3]; PANC1, 48 hours): 90.5 µM
- inhibition of proliferation ([3]; 150 uM): ~60%
- inhibition of proliferation ([3]; 300 uM): ~70%
- IC50 ([4]; PC3, 24 hours): 83.2 µM
- IC50 ([4]; PC3, 48 hours): 81.4 µM
- inhibition of proliferation ([4]; 150 uM): ~65%
- inhibition of proliferation ([4]; 300 uM): ~85%
- Hydrolysis rate in human serum (in words) ([7]; compared with aspirin): much slower rate than aspirin
- Average rate, test compound ([7]; decomposition of test compound, 0-180 min): -3.3e-07 M/min
- Test compound Rate ([7]; 0 min): 0 M/min
- Test compound Rate ([7]; 30 min): 1.91e-07 M/min
- Test compound Rate ([7]; 60 min): -2.24e-07 M/min
- Test compound Rate ([7]; 90 min): -3.62e-07 M/min
- Test compound Rate ([7]; 120 min): -2.96e-07 M/min
- Test compound Rate ([7]; 180 min): -4.38e-07 M/min
- Salicyclic acid Rate ([7]; 0 min): 0 M/min
- Salicyclic acid Rate ([7]; 30 min): 0 M/min
- Salicyclic acid Rate ([7]; 120 min): 9.11e-07 M/min
- Salicyclic acid Rate ([7]; 180 min): 1.97e-07 M/min
- Average rate, salicyclic acid ([7]; release of salicylic acid, 0-180 min): 9.08e-08 M/min
- Test compound Concentration ([7]; 0 min): 198 µM
- Test compound Concentration ([7]; 30 min): 203 µM
- Test compound Concentration ([7]; 60 min): 184 µM
- Test compound Concentration ([7]; 90 min): 165 µM
- Test compound Concentration ([7]; 120 min): 162 µM
- Test compound Concentration ([7]; 180 min): 119 µM
- Salicyclic acid Concentration ([7]; 0 min): 0 µM
- Salicyclic acid Concentration ([7]; 30 min): 0 µM
- Salicyclic acid Concentration ([7]; 60 min): 2.7 µM
- Salicyclic acid Concentration ([7]; 90 min): 2.75 µM
- Salicyclic acid Concentration ([7]; 120 min): 10.9 µM
- Salicyclic acid Concentration ([7]; 180 min): 35.4 µM
- Suppression of carrageenan-induced paw edema (in words) [5, 9]: significantly suppressed carrageenan-induced paw edema
- inhibition of cancer cell growth ([8]; 300 uM): up to 60%
- inhibition of cancer cell growth ([8]; four lower concentrations): 20%
- Tail flick latency / analgesic activity (in words) [6, 9]: significant analgesic activity

Molecule: Curcumin diglutarate [NJ-104-5]
- Percent inhibition of paw edema (Std. Error) ([5]; 1 hr): 49.26 (3.94) %
- Percent inhibition of paw edema (Std. Error) ([5]; 2 hr): 37.50 (5.11) %
- Percent inhibition of paw edema (Std. Error) ([5]; 3 hr): 20.05 (8.34) %
- Analgesic activity, tail flick (in words) ([6]; Example 9, 100 mg/kg oral): strong activity at 90 and 180 minutes; also recorded: strong analgesic activity
- Tail flick latency time [6, 10]: 3.5625 s
- Tail flick latency time [6, 11]: 3.6125 s
- Tail flick latency time [6, 12]: 3.7375 s
- Tail flick latency time [6, 13]: 3.05 s
- Tail flick latency time [6, 14]: 3.5625 s
- Tail flick latency time [6, 15]: 3.05 s

Molecule: curcumin-glutarate [MT-76-1]
- IC50 ([1]; WI38, 24 hours): 298 µM
- IC50 ([1]; WI38, 48 hours): 166 µM
- IC50 ([2]; SKBR3, 24 hours): 169 µM
- IC50 ([2]; SKBR3, 48 hours): 118 µM
- IC50 ([3]; PANC1, 24 hours): 35.4 µM
- IC50 ([3]; PANC1, 48 hours): 123 µM
- IC50 ([4]; PC3, 24 hours): 127 µM
- IC50 ([4]; PC3, 48 hours): 71.6 µM

Molecule: diacetylcurcumin [NJ-58-1]
- inhibition of normal lung cells (WI-38) ([1]; 24 hours): less than 10%
- IC50 ([1]; WI38, 24 hours): 4390 µM
- IC50 ([1]; WI38, 48 hours): 155 µM
- IC50 ([2]; SKBR3, 24 hours): 171 µM
- IC50 ([2]; SKBR3, 48 hours): 125 µM
- IC50 ([3]; PANC1, 24 hours): 268 µM
- IC50 ([3]; PANC1, 48 hours): 133 µM
- IC50 ([4]; PC3, 24 hours): 96.1 µM
- IC50 ([4]; PC3, 48 hours): 67 µM
- Anti-inflammatory activity, paw edema (in words) ([5]; Example 9, 100 mg/kg oral): strong
- Percent inhibition of paw edema (Std. Error) ([5]; 1 hr, listed as Curcumin diacetate): 76%
- Percent inhibition of paw edema (Std. Error) ([5]; 1 hr, listed as NJ-104-4): 76.49 (8.35) %
- Percent inhibition of paw edema (Std. Error) ([5]; 2 hr, listed as Curcumin diacetate): 80%
- Percent inhibition of paw edema (Std. Error) ([5]; 2 hr, listed as NJ-104-4): 80.56 (5.84) %
- Percent inhibition of paw edema (Std. Error) ([5]; 3 hr, listed as Curcumin diacetate): 76%
- Percent inhibition of paw edema (Std. Error) ([5]; 3 hr, listed as NJ-104-4): 76.74 (8.22) %
- Tail flick latency time [6, 10]: 3.675 s
- Tail flick latency time [6, 11]: 3.6125 s
- Tail flick latency time [6, 12]: 3.6375 s
- Tail flick latency time [6, 13]: 3.4375 s
- Tail flick latency time [6, 14]: 3.675 s
- Tail flick latency time [6, 15]: 3.4375 s
